Experimental data taken from patent publication US20070117770A1, “Human ribosomal DNA (rDNA) and ribosomal RNA (rRNA) nucleic acids and uses thereof” (Cylene Pharmaceuticals, Inc., priority 2005, published 2007).

Key:
Test in all cases: Protein kinase inhibition assay
[1] = biological target: cKit(h) (Homo sapiens, UniProt P10721); format: biochemical; conditions: read-out: percent residual activity of cKit(h)
Protocol: (§1) Certain compounds were tested for activity in protein kinase inhibition assays. All substrates were dissolved and diluted to working stocks in de-ionized water, apart from histone H1 (10× working stock in 20 mM MOPS pH 7.0), PDKtide (10× working stock in 50 mM Tris pH 7.0) ATF2 (which is typically stored at a 20× working stock in 50 mM Tris pH 7.5, 150 mM NaCl, 0.1 mM EGTA, 0.03% Brij-35, 50% glycerol, 1 mM benzamidine, 0.2 mM PMSF and 0.1% R-mercaptoethanol), KKLNRTLSFAEPG (SEQ ID NO:203) and RRRLSFAEPG (SEQ ID NO:204) (50 mM HEPES pH 7.4) and GGEEEEYFELVKKKK (SEQ ID NO:205) (20 mM MOPS pH 7.0). All kinases were pre-diluted to a 10× working concentration prior to addition into the assay. The composition of the dilution buffer for each kinase is detailed below.
(§2) In a final reaction volume of 25 μl, cKit (h) (5-10 mU) is incubated with 8 mM MOPS pH 7.0, 0.2 mM EDTA, 10 mM MnCl2, 0.1 mg/ml poly(Glu, Tyr) 4:1, 10 mM MgAcetate and [gamma-33P-ATP] (specific activity approx. 500 cpm/pmol, concentration as required). The reaction is initiated by the addition of the MgATP mix. After incubation for 40 minutes at room temperature, the reaction is stopped by the addition of 5 μl of a 3% phosphoric acid solution. 10 μl of the reaction is then spotted onto a Filtermat A and washed three times for 5 minutes in 75 mM phosphoric acid and once in methanol prior to drying and scintillation counting.

[2] = biological target: EphA5(h) (Homo sapiens, UniProt P54756); format: biochemical; conditions: read-out: percent residual activity of EphA5(h)
Protocol: as §1
as §2, with “μl, EphA5” for “μl, cKit”, “EDTA, 2.5” for “EDTA, 10”, “mg/ml poly (Glu,” for “mg/ml poly(Glu,”

[3] = biological target: ZIPK(h) (Homo sapiens, UniProt O43293); format: biochemical; conditions: read-out: percent residual activity of ZIPK(h)
Protocol: as §1
as §2, with “ZIPK” for “cKit”, “250 μM KKLNRTLSFAEPG (SEQ ID NO:203),” for “10 mM MnCl2, 0.1 mg/ml poly(Glu, Tyr) 4:1,”, “P30 filtermat” for “Filtermat A”

[4] = biological target: PKA(b) (Bos taurus, UniProt P00517); format: biochemical, bovine; conditions: read-out: percent residual activity of PKA(b)
Protocol: as §1
as §2, with “PKA (b)” for “cKit (h)”, “30 μM LRRASLG (SEQ ID NO:209) (Kemptide),” for “10 mM MnCl2, 0.1 mg/ml poly(Glu, Tyr) 4:1,”, “[y-33P-ATP]” for “[gamma-33P-ATP]”, “P30 filtermat” for “Filtermat A”, “50” for “75”

[5] = biological target: PRAK(h) (Homo sapiens, UniProt Q8IW41); format: biochemical; conditions: read-out: percent residual activity of PRAK(h)
Protocol: as §1
In a final reaction volume of 25 μl, PRAK (h) (5-10 mU) is incubated with 50 mM Na R-glycerophosphate pH 7.5, 0.1 mM EGTA, 30 μM KKLRRTLSVA (SEQ ID NO:212), 10 mM MgAcetate and [gamma-33P-ATP) (specific activity approx. 500 cpm/pmol, concentration as required). The reaction is initiated by the addition of the MgATP mix. After incubation for 40 minutes at room temperature, the reaction is stopped by the addition of 5 μl of a 3% phosphoric acid solution. […]

[6] = biological target: PKCη(h) (Homo sapiens, UniProt P24723); format: biochemical; conditions: read-out: percent residual activity of PKCη(h)
Protocol: as §1
In a final reaction volume of 25 μl, PKCη (h) (5-10 mU) is incubated with 20 mM HEPES pH 7.4, 0.03% Triton X-100, 0.1 mM CaCl2, 0.1 mg/ml phosphatidylserine, 10 μg/ml diacylglycerol, 50 μM ERMRPRKRQGSVRRRV (SEQ ID NO:234), 10 mM MgAcetate and [gamma-33P-ATP] (specific activity approx. 500 cpm/pmol, concentration as required). The reaction is initiated by the addition of the MgATP mix. After incubation for 40 minutes at room temperature, the reaction is stopped by the addition of 5 μl of a 3% phosphoric acid solution. […]

Sequence of cKit(h) (P10721 26-976): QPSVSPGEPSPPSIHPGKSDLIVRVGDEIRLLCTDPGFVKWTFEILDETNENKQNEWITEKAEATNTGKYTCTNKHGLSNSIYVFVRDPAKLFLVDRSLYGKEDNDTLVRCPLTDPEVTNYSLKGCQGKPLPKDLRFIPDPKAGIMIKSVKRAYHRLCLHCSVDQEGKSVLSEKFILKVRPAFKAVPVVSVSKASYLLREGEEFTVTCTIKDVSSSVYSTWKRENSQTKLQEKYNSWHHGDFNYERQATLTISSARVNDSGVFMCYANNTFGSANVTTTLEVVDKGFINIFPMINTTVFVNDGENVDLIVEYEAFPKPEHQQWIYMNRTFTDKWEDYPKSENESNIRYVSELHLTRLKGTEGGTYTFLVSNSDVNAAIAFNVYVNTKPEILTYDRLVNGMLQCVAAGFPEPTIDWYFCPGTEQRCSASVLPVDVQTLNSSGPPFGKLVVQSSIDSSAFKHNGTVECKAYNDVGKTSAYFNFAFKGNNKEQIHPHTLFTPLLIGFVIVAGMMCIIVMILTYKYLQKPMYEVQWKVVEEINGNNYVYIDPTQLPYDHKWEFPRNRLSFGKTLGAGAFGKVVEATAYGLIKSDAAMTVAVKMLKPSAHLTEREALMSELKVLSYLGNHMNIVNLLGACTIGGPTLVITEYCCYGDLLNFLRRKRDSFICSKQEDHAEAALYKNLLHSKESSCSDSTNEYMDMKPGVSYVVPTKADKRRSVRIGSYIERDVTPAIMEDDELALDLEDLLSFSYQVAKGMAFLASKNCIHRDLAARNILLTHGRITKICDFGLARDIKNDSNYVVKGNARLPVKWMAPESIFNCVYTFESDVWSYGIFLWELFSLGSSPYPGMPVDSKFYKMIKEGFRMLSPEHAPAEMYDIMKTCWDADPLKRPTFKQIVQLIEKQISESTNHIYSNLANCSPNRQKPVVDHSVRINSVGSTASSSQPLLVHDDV
Sequence of EphA5(h) (P54756 25-1037): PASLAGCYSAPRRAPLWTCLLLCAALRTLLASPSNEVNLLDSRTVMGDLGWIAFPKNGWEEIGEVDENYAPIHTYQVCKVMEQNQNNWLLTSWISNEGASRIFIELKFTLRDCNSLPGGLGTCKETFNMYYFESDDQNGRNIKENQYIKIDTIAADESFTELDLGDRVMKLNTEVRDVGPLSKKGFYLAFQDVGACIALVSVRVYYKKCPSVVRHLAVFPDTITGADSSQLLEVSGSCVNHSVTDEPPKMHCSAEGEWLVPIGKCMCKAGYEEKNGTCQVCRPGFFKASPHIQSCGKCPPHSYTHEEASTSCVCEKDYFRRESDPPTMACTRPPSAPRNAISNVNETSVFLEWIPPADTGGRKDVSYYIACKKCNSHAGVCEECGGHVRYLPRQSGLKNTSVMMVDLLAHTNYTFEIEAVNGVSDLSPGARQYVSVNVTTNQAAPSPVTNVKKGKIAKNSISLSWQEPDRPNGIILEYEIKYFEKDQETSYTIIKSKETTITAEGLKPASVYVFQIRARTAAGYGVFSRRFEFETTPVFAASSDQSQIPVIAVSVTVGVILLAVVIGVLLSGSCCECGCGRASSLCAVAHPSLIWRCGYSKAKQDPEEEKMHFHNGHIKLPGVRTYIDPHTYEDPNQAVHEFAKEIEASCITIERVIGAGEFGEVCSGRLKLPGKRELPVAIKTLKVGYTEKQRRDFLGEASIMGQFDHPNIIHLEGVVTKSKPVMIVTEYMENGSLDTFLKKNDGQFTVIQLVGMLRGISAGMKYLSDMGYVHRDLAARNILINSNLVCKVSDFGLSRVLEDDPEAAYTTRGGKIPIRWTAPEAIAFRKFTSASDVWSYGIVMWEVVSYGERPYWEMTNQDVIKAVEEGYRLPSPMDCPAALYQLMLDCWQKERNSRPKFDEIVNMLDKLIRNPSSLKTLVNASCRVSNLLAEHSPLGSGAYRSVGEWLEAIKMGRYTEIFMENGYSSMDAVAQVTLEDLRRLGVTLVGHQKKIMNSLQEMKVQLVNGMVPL
Sequence of PKCη(h) (P24723 whole entry): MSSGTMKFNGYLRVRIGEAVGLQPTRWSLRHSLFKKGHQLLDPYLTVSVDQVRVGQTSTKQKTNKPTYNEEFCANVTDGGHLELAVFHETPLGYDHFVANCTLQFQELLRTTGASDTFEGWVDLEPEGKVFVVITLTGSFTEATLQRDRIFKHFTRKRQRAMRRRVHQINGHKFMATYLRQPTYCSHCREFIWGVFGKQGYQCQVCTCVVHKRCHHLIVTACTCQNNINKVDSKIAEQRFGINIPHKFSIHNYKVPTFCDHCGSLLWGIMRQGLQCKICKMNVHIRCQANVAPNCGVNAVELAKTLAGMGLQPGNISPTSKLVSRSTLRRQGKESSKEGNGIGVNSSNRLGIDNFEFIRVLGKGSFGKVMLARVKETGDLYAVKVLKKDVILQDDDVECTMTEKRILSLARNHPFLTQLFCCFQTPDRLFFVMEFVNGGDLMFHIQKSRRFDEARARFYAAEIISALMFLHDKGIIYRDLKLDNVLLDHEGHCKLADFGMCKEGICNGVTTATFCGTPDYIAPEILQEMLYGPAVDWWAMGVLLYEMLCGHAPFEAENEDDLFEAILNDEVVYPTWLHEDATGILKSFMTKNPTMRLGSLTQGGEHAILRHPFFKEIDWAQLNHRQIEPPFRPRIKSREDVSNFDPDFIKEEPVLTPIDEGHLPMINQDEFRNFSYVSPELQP
Sequence of PRAK(h) (Q8IW41 whole entry): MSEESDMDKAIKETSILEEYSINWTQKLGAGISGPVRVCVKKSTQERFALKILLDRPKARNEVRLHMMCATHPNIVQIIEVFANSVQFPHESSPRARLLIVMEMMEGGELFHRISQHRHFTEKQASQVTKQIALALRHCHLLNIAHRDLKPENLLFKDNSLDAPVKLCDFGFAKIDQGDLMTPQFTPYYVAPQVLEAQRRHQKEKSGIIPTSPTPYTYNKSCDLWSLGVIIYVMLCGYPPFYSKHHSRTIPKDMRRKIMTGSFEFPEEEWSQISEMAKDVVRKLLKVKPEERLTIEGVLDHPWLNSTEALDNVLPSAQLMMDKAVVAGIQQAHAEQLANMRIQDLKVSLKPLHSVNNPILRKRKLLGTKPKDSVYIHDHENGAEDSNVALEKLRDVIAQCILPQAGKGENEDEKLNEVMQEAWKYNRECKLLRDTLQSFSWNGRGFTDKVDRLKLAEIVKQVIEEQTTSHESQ
Sequence of ZIPK(h) (O43293 whole entry): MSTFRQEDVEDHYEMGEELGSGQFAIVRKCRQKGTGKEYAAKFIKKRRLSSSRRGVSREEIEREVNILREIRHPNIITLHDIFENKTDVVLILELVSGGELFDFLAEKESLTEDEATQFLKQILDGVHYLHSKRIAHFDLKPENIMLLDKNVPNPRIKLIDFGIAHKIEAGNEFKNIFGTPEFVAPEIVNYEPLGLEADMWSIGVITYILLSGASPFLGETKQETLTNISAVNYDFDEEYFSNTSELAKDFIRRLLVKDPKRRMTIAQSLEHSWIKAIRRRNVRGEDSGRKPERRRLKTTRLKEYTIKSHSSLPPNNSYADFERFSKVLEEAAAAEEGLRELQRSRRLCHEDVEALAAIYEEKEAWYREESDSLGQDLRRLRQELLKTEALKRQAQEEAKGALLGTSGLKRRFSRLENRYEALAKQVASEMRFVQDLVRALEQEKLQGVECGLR

remaining activity at 2.5 µM [1] [%]	remaining activity at 2.5 µM [2] [%]	remaining activity at 2.5 µM [3] [%]	remaining activity at 2.5 µM [4] [%]	remaining activity at 2.5 µM [5] [%]	remaining activity at 2.5 µM [6] [%]	Compound
111	111	27	99	105	80	CN1CCCC1CCNC(=O)c1cn2c3c(c(N4CCC(c5cnccn5)C4)c(F)cc3c1=O)Oc1cc3ccccc3cc1-2 (stereo not drawn) [Compound A-1]
114	101	116	96	111	80	CC(=O)N1CCN(c2ccc3c(=O)c(C(=O)NCCN4CCCC4)c4n(C)c5ccccc5n4c3n2)CC1 [Compound B-1]
